From paper PMC12212627, “Machine Learning-Based Virtual Screening of Antibacterial Agents against Methicillin-Susceptible and Resistant Staphylococcus aureus” (Journal of Chemical Information and Modeling, 2024)

Legend:
[1] = system: E. coli (ATCC 35218), TEM-1 β-lactamase producing strain; assay: Broth microdilution (CLSI): screening at 100 μM and MIC, E. coli; type: cell-based; conditions: at 100 uM, Table S4
Description: (§1) E. coli (ATCC n° […]) – a TEM-1 β-lactamase producing strain, S. aureus (ATCC n° 29213) – herein referred to as MSSA, MRSA (ATCC n° 43300), and two clinical strains of MRSA (n° 5749 and 6154) were used in the biological assays. The antibacterial activity and minimal inhibitory concentration (MIC) of the screened compounds were evaluated with the broth microdilution method in 96-well microplates, according to the Clinical and Laboratory Standards Institute (CLSI) protocol. Initially, compounds were evaluated in a screening assay to identify promising hits. The compounds were dissolved in dimethyl sulfoxide (DMSO) and then diluted in Mueller Hinton broth (MHB; Oxoid, Thermo Scientific, U.K.) to a concentration of 200 μM. After the addition of 100 μL to each well, the same volume of bacterial suspension containing 10^5 CFU/mL was added to each of the previous solutions, resulting in a final compound concentration of 100 μM. A viability control (bacterial suspension only), inhibition controls (MHB containing five times the MIC of penicillin G for MSSA, vancomycin for MRSA strains, and streptomycin for E. coli), a sterility control (medium only), and a vehicle control (DMSO 2% v/v) were included in each assay microplate. After 24 h of incubation at 37 °C, the microplates were visually inspected for inhibition of bacterial growth, and the absorbance at 600 nm of each well was read using a microplate reader spectrophotometer (VersaMax, Molecular Devices, CA). The percentage of growth inhibition was calculated as the percentage of growth reduction compared with the vehicle control. Wells showing no visual bacterial growth (no turbidity) were considered hits. The MIC of the promising compounds in the initial screening were tested as previously described, with a serial dilution of each compound (100–1.56 μM). All conditions were tested in triplicate from at least three independent assays.

[2] = system: S. aureus (ATCC n° 29213), MSSA; assay: Broth microdilution (CLSI): screening at 100 μM and MIC, MSSA; type: cell-based, Staphylococcus aureus; conditions: at 100 uM, Table S4
Description: as §1

MRSA (ATCC n° 43300) = assay: Broth microdilution (CLSI): screening at 100 μM and MIC, MRSA reference strain; type: cell-based, Staphylococcus aureus; conditions: at 100 uM, Table S4
Description: as §1

[3] = system: clinical strain of MRSA n° 5749; assay: Broth microdilution (CLSI): screening at 100 μM and MIC, MRSA clinical strain 5749; type: cell-based, Staphylococcus aureus; conditions: at 100 uM, Table S4
Description: as §1

[4] = system: clinical strain of MRSA n° 6154; assay: Broth microdilution (CLSI): screening at 100 μM and MIC, MRSA clinical strain 6154; type: cell-based, Staphylococcus aureus; conditions: at 100 uM, Table S4
Description: as §1

MSSA and MRSA strains = assay: Broth microdilution, results summed up over MSSA and MRSA strains; type: cell-based, Staphylococcus aureus; conditions: tested compounds of Supporting Table S4, 100 μM
Description: as §1

| Structure (SMILES) | Percentage of growth inhibition E. coli (ATCC 35218) [1] [%] | Percentage of growth inhibition MSSA (ATCC 29123) [2] [%] | Percentage of growth inhibition MRSA (ATCC 43300) (MRSA (ATCC n° 43300)) [%] | Percentage of growth inhibition MRSA (5749) [3] [%] | Percentage of growth inhibition MRSA (6154) [4] [%] | antibacterial activity (in words) (MSSA and MRSA strains) |
| --- | --- | --- | --- | --- | --- | --- |
| C#CCOC1=C(CC=C(C)C)C(=O)c2ccccc2C1=O [S35] | 0 | 0 | 0 | 0 | 0 | – |
| O=C(NC(Cc1ccc(O)cc1)C(=O)O)OCc1ccccc1 (centres unmarked) [S42] | 0 | 0 | 0 | 0 | 0 | – |
| O=C1C(O)=C(Cc2cn(C3OC(CO)C(O)C(O)C3O)nn2)C(=O)c2ccccc21 (centres unmarked) [S26] | 0 | 0 | 0 | 0 | 0 | – |
| O=C(NCCO)c1cc2ccccc2[nH]1 [S48] | 0 | 0 | 0 | 0 | 0 | – |
| O=c1cc(-c2ccc(O)c(O)c2)oc2c(C3OC(CO)C(O)C(O)C3O)c(O)cc(O)c12 (centres unmarked) [S54] | 0 | 0 | 0 | 0 | 0 | – |
| CC(=O)NC1C(O)C(O)C(CO)OC1n1cc(CC2=C(O)C(=O)c3ccccc3C2=O)nn1 (centres unmarked) [S27] | 0 | 0 | 0 | 0 | 0 | – |
| O=C(NCCCN1CCOCC1)c1cc2ccccc2[nH]1 [S49] | 0 | 0 | 0 | 0 | 0 | – |
| CC1(C)OCC(CO)N1C(=O)OCc1ccccc1 (centres unmarked) [S13] | 0 | 0 | 0 | 0 | 0 | – |
| OCCNCc1cc2ccccc2[nH]1 [S46] | 0 | 0 | 0 | 0 | 0 | – |
| CCCNC(=O)c1cc2ccccc2[nH]1 [S47] | 0 | 0 | 0 | 0 | 0 | – |
| NC(=O)CC(NC(=O)OCc1ccccc1)C(=O)O (centres unmarked) [S43] | 0 | 0 | 0 | 0 | 0 | – |
| OC(COc1cccc2ccccc12)COc1cccc2ccccc12 [S17] | 0 | 0 | 0 | 0 | 0 | – |
| N#Cc1ccccc1OCC(O)COc1ccccc1C#N [S18] | 0 | 0 | 0 | 0 | 0 | – |
| O=C(CCc1ccccc1)ON1C(=O)CCC1=O [S16] | 0 | 0 | 0 | 0 | 0 | – |
| CC(C)=CCC1=C(NCC(=O)O)C(=O)c2ccccc2C1=O [S34] | 0 | 0 | 0 | 0 | 0 | – |
| CC(=O)OC1C(C)OC(n2cc(COC3=CC(=O)c4ccccc4C3=O)nn2)C(OC(C)=O)C1OC(C)=O (centres unmarked) [S33] | 0 | 0 | 0 | 0 | 0 | inactive |
| NCCNC(=O)c1cc2ccccc2[nH]1 [S45] | 0 | 0 | 0 | 0 | 0 | – |
| O=C1C(O)=C(Cc2cn(C3OC(CO)C(O)C(O)C3O)nn2)C(=O)c2ccccc21 (centres unmarked) [S25] | 0 | 0 | 0 | 0 | 0 | – |
| N#Cc1cccc(OCC(O)COc2cccc(C#N)c2)c1 [S19] | 0 | 0 | 0 | 0 | 0 | – |
| O=C(C=Cc1ccccc1)NC(CO)COc1ccc([N+](=O)[O-])cc1 (centres unmarked) [S14] | 0 | 0 | 0 | 0 | 0 | – |
